# Assay results published in PubChem BioAssay AID2060340 (Molecular Pharmacology Branch, DTP, NCI, 2025).
# Tested on: 349418-098-R-PDC spheroids, viability, % test/control
# Assay: Anticancer human tumor 349418-098-R-PDC patient-derived lung adenocarcinoma cell line growth inhibition [IpAb]
# Settings: spheroids with HUVEC and MSC; for IC50: curve of first compound; for viability, T/C: stronger effect = lower value
# In short: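 Spheroids of 60% malignant cells, 25% HUVEC and 15% MSC were exposed to targeted agents combined with ipatasertib or abemaciclib. Doses started at or near clinical Cmax (10 microM when unknown) and fell in half-log steps.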
# [1] = second compound 0.1 µM, first compound 0.0316 µM
# [2] = second compound 0.1 µM, first compound 0.1 µM
# [3] = second compound 0.1 µM, first compound 0.316 µM
# [4] = second compound 0.1 µM, first compound 1 µM
# [5] = second compound 0.1 µM, first compound 3.16 µM
# [6] = second compound 0.1 µM, first compound 10 µM
# [7] = second compound 0.316 µM, first compound 0.0316 µM
# [8] = second compound 0.316 µM, first compound 0.1 µM
# [9] = second compound 0.316 µM, first compound 0.316 µM
# [10] = second compound 0.316 µM, first compound 1 µM
# [11] = second compound 0.316 µM, first compound 3.16 µM
# [12] = second compound 0.316 µM, first compound 10 µM
# [13] = second compound 1 µM, first compound 0.0316 µM
# [14] = second compound 1 µM, first compound 0.1 µM
# [15] = second compound 1 µM, first compound 0.316 µM
# [16] = second compound 1 µM, first compound 1 µM
# [17] = second compound 1 µM, first compound 3.16 µM
# [18] = second compound 1 µM, first compound 10 µM
# [19] = second compound 0.01 µM, first compound 0.0316 µM
# [20] = second compound 0.01 µM, first compound 0.1 µM
# [21] = second compound 0.01 µM, first compound 0.316 µM
# [22] = second compound 0.01 µM, first compound 1 µM
# [23] = second compound 0.0316 µM, first compound 0.0316 µM
# [24] = second compound 0.0316 µM, first compound 0.1 µM
# [25] = second compound 0.0316 µM, first compound 0.316 µM
# [26] = second compound 0.0316 µM, first compound 1 µM
SMILES,IC50 (second compound 0.1 µM),IC50 (second compound 0.316 µM),IC50 (second compound 1 µM),"viability, T/C [1]","viability, T/C [2]","viability, T/C [3]","viability, T/C [4]","viability, T/C [5]","viability, T/C [6]","viability, T/C [7]","viability, T/C [8]","viability, T/C [9]","viability, T/C [10]","viability, T/C [11]","viability, T/C [12]","viability, T/C [13]","viability, T/C [14]","viability, T/C [15]","viability, T/C [16]","viability, T/C [17]",also measured
C=CCn1c(=O)c2cnc(Nc3ccc(N4CCN(C)CC4)cc3)nc2n1-c1cccc(C(C)(C)O)n1 + CC(C)NCC(C(=O)N1CCN(c2ncnc3c2C(C)CC3O)CC1)c1ccc(Cl)cc1,154 nM,84.5 nM,< 31.6 nM,96.2%,73%,11.5%,4.54%,4.88%,5.17%,82%,44.5%,7.25%,4.35%,4.32%,4.08%,29.7%,22.2%,5.45%,3.39%,3.96%,"IC50 (second compound 3.16 µM): < 31.6 nM; IC50 (second compound 10 µM): < 31.6 nM; viability, T/C [18]: 3.54%; viability, T/C (second compound 3.16 µM, first compound 0.0316 µM): 15.3%; viability, T/C (second compound 3.16 µM, first compound 0.1 µM): 12.3%; viability, T/C (second compound 3.16 µM, first compound 0.316 µM): 4.49%; viability, T/C (second compound 3.16 µM, first compound 1 µM): 2.96%; viability, T/C (second compound 3.16 µM, first compound 3.16 µM): 3.95%; viability, T/C (second compound 3.16 µM, first compound 10 µM): 3.35%; viability, T/C (second compound 10 µM, first compound 0.0316 µM): 9.2%; viability, T/C (second compound 10 µM, first compound 0.1 µM): 7.89%; viability, T/C (second compound 10 µM, first compound 0.316 µM): 4.37%; viability, T/C (second compound 10 µM, first compound 1 µM): 2.99%; viability, T/C (second compound 10 µM, first compound 3.16 µM): 3.49%; viability, T/C (second compound 10 µM, first compound 10 µM): 3.4%"
C=CCn1c(=O)c2cnc(Nc3ccc(N4CCN(C)CC4)cc3)nc2n1-c1cccc(C(C)(C)O)n1 + CCN1CCN(Cc2ccc(Nc3ncc(F)c(-c4cc(F)c5nc(C)n(C(C)C)c5c4)n3)nc2)CC1,< 31.6 nM,< 31.6 nM,< 31.6 nM,38.4%,30%,13.3%,7%,6.21%,5.25%,23.6%,20.2%,14.4%,10%,7.67%,6.46%,17.9%,15.5%,11.4%,9.92%,6.96%,"IC50 (second compound 0.01 µM): 164 nM; IC50 (second compound 0.0316 µM): 101 nM; viability, T/C [19]: 78.5%; viability, T/C [20]: 76.4%; viability, T/C [21]: 15.1%; viability, T/C [22]: 5.22%; viability, T/C (second compound 0.01 µM, first compound 3.16 µM): 4.65%; viability, T/C (second compound 0.01 µM, first compound 10 µM): 5.36%; viability, T/C [23]: 65.1%; viability, T/C [24]: 50.2%; viability, T/C [25]: 13.4%; viability, T/C [26]: 6.17%; viability, T/C (second compound 0.0316 µM, first compound 3.16 µM): 4.95%; viability, T/C (second compound 0.0316 µM, first compound 10 µM): 4.75%; viability, T/C [18]: 5.12%"
COc1c(OCCCN2CCOCC2)ccc2c3n(c(=NC(=O)c4cnc(N)nc4)nc12)CCN3 + CCN1CCN(Cc2ccc(Nc3ncc(F)c(-c4cc(F)c5nc(C)n(C(C)C)c5c4)n3)nc2)CC1,< 3.16 nM,< 3.16 nM,< 3.16 nM,8.06%,6.16%,6.04%,5.83%,,,7.73%,6.28%,6.11%,6.92%,,,8.15%,6.25%,7.04%,7.33%,,"IC50 (second compound 0.01 µM): 5.6 nM; IC50 (second compound 0.0316 µM): < 3.16 nM; viability, T/C (second compound 0.01 µM, first compound 0.00316 µM): 66.8%; viability, T/C (second compound 0.01 µM, first compound 0.01 µM): 32.9%; viability, T/C [19]: 9.39%; viability, T/C [20]: 6.45%; viability, T/C [21]: 6.48%; viability, T/C [22]: 6.24%; viability, T/C (second compound 0.0316 µM, first compound 0.00316 µM): 48.8%; viability, T/C (second compound 0.0316 µM, first compound 0.01 µM): 13.5%; viability, T/C [23]: 8.91%; viability, T/C [24]: 6.1%; viability, T/C [25]: 5.57%; viability, T/C [26]: 5.71%; viability, T/C (second compound 0.1 µM, first compound 0.00316 µM): 23.6%; viability, T/C (second compound 0.1 µM, first compound 0.01 µM): 14%; viability, T/C (second compound 0.316 µM, first compound 0.00316 µM): 15.9%; viability, T/C (second compound 0.316 µM, first compound 0.01 µM): 10.6%; viability, T/C (second compound 1 µM, first compound 0.00316 µM): 14%; viability, T/C (second compound 1 µM, first compound 0.01 µM): 12.3%"
